Earlier results in publication PMC8373983, “Effect of salinity on the zinc(II) binding efficiency of siderophore functional groups and implications for salinity tolerance mechanisms in barley” (Scientific Reports, 2021).
Like-named read-outs stand apart in the source and are kept apart here.

Assays:
barley plants = conditions: cited from earlier work
[1] = test system: wild and cultivated barley plants; conditions: 0.20 M NaCl; hydroponic, no initial micronutrient deficiencies; cited from earlier work

[Cl-].[Na+] [NaCl]
Zinc(II) content ratio (barley plants; Leaves, Iranis, 0.08 M NaCl, pH 7.5, soil, 350 μmol/mol CO2): 0.88
Zinc(II) content ratio (barley plants; Leaves, Iranis, 0.08 M NaCl, pH 7.5, soil, 700 μmol/mol CO2): 1.25
Zinc(II) content ratio (barley plants; Leaves, Iranis, 0.16 M NaCl, pH 7.5, soil, 350 μmol/mol CO2): 0.94
Zinc(II) content ratio (barley plants; Leaves, Iranis, 0.16 M NaCl, pH 7.5, soil, 700 μmol/mol CO2): 1.19
Zinc(II) content ratio (barley plants; Leaves, Iranis, 0.24 M NaCl, pH 7.5, soil, 350 μmol/mol CO2): 1.35
Zinc(II) content ratio (barley plants; Leaves, Iranis, 0.24 M NaCl, pH 7.5, soil, 700 μmol/mol CO2): 1.31
Zinc(II) content ratio (barley plants; Roots, CM72, 0.15 M NaCl, pH 6.5, soil, Cr 0 μM): 0.68
Zinc(II) content ratio (barley plants; Roots, CM72, 0.15 M NaCl, pH 6.5, soil, Cr 10 μM): 0.66
Zinc(II) content ratio (barley plants; Roots, CM72, 0.15 M NaCl, pH 6.5, soil, Cr 50 μM): 0.82
Zinc(II) content ratio (barley plants; Roots, Gairdner, 0.15 M NaCl, pH 6.5, soil, Cr 0 μM): 0.51
Zinc(II) content ratio (barley plants; Roots, Gairdner, 0.15 M NaCl, pH 6.5, soil, Cr 10 μM): 0.56
Zinc(II) content ratio (barley plants; Roots, Gairdner, 0.15 M NaCl, pH 6.5, soil, Cr 50 μM): 0.59
Zinc(II) content ratio (barley plants; Roots, Iranis, 0.08 M NaCl, pH 7.5, soil, 350 μmol/mol CO2): 1.08
Zinc(II) content ratio (barley plants; Roots, Iranis, 0.08 M NaCl, pH 7.5, soil, 700 μmol/mol CO2): 1.11
Zinc(II) content ratio (barley plants; Roots, Iranis, 0.16 M NaCl, pH 7.5, soil, 350 μmol/mol CO2): 0.90
Zinc(II) content ratio (barley plants; Roots, Iranis, 0.16 M NaCl, pH 7.5, soil, 700 μmol/mol CO2): 1.00
Zinc(II) content ratio (barley plants; Roots, Iranis, 0.24 M NaCl, pH 7.5, soil, 350 μmol/mol CO2): 0.97
Zinc(II) content ratio (barley plants; Roots, Iranis, 0.24 M NaCl, pH 7.5, soil, 700 μmol/mol CO2): 0.96
Zinc(II) content ratio (barley plants; Shoots, CM72, 0.15 M NaCl, pH 6.5, soil, Cr 0 μM): 0.79
Zinc(II) content ratio (barley plants; Shoots, CM72, 0.15 M NaCl, pH 6.5, soil, Cr 10 μM): 0.82
Zinc(II) content ratio (barley plants; Shoots, CM72, 0.15 M NaCl, pH 6.5, soil, Cr 50 μM): 0.98
Zinc(II) content ratio (barley plants; Shoots, Gairdner, 0.15 M NaCl, pH 6.5, soil, Cr 0 μM): 0.67
Zinc(II) content ratio (barley plants; Shoots, Gairdner, 0.15 M NaCl, pH 6.5, soil, Cr 10 μM): 0.72
Zinc(II) content ratio (barley plants; Shoots, Gairdner, 0.15 M NaCl, pH 6.5, soil, Cr 50 μM): 0.97
Zinc(II) content ratio (barley plants; Stems, Iranis, 0.08 M NaCl, pH 7.5, soil, 350 μmol/mol CO2): 1.25
Zinc(II) content ratio (barley plants; Stems, Iranis, 0.08 M NaCl, pH 7.5, soil, 700 μmol/mol CO2): 0.95
Zinc(II) content ratio (barley plants; Stems, Iranis, 0.16 M NaCl, pH 7.5, soil, 350 μmol/mol CO2): 0.81
Zinc(II) content ratio (barley plants; Stems, Iranis, 0.16 M NaCl, pH 7.5, soil, 700 μmol/mol CO2): 0.95
Zinc(II) content ratio (barley plants; Stems, Iranis, 0.24 M NaCl, pH 7.5, soil, 350 μmol/mol CO2): 1.19
Zinc(II) content ratio (barley plants; Stems, Iranis, 0.24 M NaCl, pH 7.5, soil, 700 μmol/mol CO2): 1.16
Zinc(II) content ratio (barley plants; Whole-plant, Bajwar-200, 0.04 M NaCl, pH 5.6, hydroponic): 0.99
Zinc(II) content ratio (barley plants; Whole-plant, Bajwar-200, 0.08 M NaCl, pH 5.6, hydroponic): 1.03
Zinc(II) content ratio (barley plants; Whole-plant, Bajwar-200, 0.12 M NaCl, pH 5.6, hydroponic): 1.18
Zinc(II) content ratio (barley plants; Whole-plant, TARM-92, 0.09 M NaCl, pH 8.1, soil, seeds soaked in 0.5 mM Kinetin): 1.12
Zinc(II) content ratio (barley plants; Whole-plant, TARM-92, 0.09 M NaCl, pH 8.1, soil, seeds soaked in 2.0 mM GA3): 2.00
Zinc(II) content ratio (barley plants; Whole-plant, TARM-92, 0.09 M NaCl, pH 8.1, soil, seeds soaked in H2O): 1.07
Zinc(II) content ratio (barley plants; Whole-plant, TARM-92, 0.16 M NaCl, pH 8.1, soil, seeds soaked in 0.5 mM Kinetin): 1.13
Zinc(II) content ratio (barley plants; Whole-plant, TARM-92, 0.16 M NaCl, pH 8.1, soil, seeds soaked in 2.0 mM GA3): 1.06
Zinc(II) content ratio (barley plants; Whole-plant, TARM-92, 0.16 M NaCl, pH 8.1, soil, seeds soaked in H2O): 1.09
Zinc(II) content ratio (barley plants; Whole-plant, TARM-92, 0.24 M NaCl, pH 8.1, soil, seeds soaked in 0.5 mM Kinetin): 1.05
Zinc(II) content ratio (barley plants; Whole-plant, TARM-92, 0.24 M NaCl, pH 8.1, soil, seeds soaked in 2.0 mM GA3): 0.88
Zinc(II) content ratio (barley plants; Whole-plant, TARM-92, 0.24 M NaCl, pH 8.1, soil, seeds soaked in H2O): 1.17
increase in phytosiderophore release [1]: 2.5–3 times
